Assay results taken from PMC4872110 (Nucleic Acids Research, 2016).

T1: SsTsr3 (Saccharolobus solfataricus, UniProt Q9UWV6)
T1 sequence (Q9UWV6 1-166): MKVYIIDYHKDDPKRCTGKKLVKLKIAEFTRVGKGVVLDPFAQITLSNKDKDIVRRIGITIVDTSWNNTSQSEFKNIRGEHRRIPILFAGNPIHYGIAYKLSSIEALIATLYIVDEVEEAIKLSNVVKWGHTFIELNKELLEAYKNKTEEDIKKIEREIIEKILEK

T2: SsTsr3 (Sulfolobus solfataricus, UniProt Q9UWV6 1-166)
T2 sequence: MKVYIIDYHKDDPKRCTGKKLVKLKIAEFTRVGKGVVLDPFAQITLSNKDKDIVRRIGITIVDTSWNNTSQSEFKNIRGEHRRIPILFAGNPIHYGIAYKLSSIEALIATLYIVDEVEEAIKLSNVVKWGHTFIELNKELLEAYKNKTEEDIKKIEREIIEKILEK


Experiments:
[1] = target: VdTsr3 (Vulcanisaeta distributa, UniProt E1QU22); conditions: co-purified endogenous E. coli SAM
[2] = target: T1, SsTsr3; experiment: tryptophan fluorescence quenching; assay type: binding
[3] = target: SsTsr3 (Saccharolobus solfataricus, UniProt Q9UWV6, D63A); experiment: biochemical
[4] = target: SsTsr3 (Saccharolobus solfataricus, UniProt Q9UWV6, T17D); experiment: biochemical
[5] = target: SsTsr3 (Saccharolobus solfataricus, UniProt Q9UWV6, T17A); experiment: biochemical
[6] = target: T2, SsTsr3; experiment: fluorescence anisotropy

Sequence of SsTsr3 (Saccharolobus solfataricus, UniProt Q9UWV6, T17D) (Q9UWV6 whole entry T17D): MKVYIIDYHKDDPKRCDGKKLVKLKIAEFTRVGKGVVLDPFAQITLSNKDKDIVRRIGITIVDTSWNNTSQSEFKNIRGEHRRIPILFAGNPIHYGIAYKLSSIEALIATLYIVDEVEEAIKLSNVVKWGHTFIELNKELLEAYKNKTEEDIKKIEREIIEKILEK
Sequence of SsTsr3 (Saccharolobus solfataricus, UniProt Q9UWV6, D63A) (Q9UWV6 whole entry D63A): as the sequence (Q9UWV6 whole entry T17D) above, with D17T, D63A counted along it
Sequence of SsTsr3 (Saccharolobus solfataricus, UniProt Q9UWV6, T17A) (Q9UWV6 whole entry T17A): as the sequence (Q9UWV6 whole entry T17D) above, with D17A counted along it
Sequence of VdTsr3 (E1QU22 whole entry): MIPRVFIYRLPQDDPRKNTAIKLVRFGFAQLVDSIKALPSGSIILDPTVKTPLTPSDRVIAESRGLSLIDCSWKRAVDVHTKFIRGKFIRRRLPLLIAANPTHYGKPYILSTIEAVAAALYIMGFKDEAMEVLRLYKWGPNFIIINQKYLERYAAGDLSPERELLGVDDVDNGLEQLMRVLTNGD

Molecule | X-ray crystal structure, 1.6 Å (Se-SAD) [1] | Kd [2] [µM] | Kd [3] [µM] | Kd [4] [µM] | Kd [5] [µM] | Kd [6] [µM]
C[S+](CC[C@H](N)C(=O)O)C[C@H]1O[C@@H](n2cnc3c(N)ncnc32)[C@H](O)[C@@H]1O (stereo partly drawn) [SAM] | VdTsr3 was purified and crystallized in complex with endogenous (E. coli) SAM | 6.5 | 11 | 11200 | 3900 | –
UUUUUUUUU (ssRNA) [oligo-U9 RNA] | – | – | – | – | – | 6
